Source: patent publication US9289428B2, “Conveniently injectable or implantable sustained-release antioxidant formulations for therapies of ocular maladies or cancer” (RAMSCOR, INC., priority 2011, dated 2016)
Read-outs that look alike come from different tables or passages of the source.

How the values were obtained:
[1] = Concentration of active agent in the rabbit eye after injection of a sustained release formulation into the vitreous; format: in vivo
Procedure: A 10 μL unit dose of either formulation 1 or formulation 2 was injected into the eyes of two rabbits, and the concentration of timolol or dexamethasone (dex) remaining in the eye tested at 7 days and 14 days thereafter. A 50 μL unit dose was injected into the vitreous of two rabbit's eyes, and the concentrations of active agent detected 7 days thereafter and averaged. Timalol was detected at 8.93 μg/mL; Dex was detected at 2.82 μg/mL.
A formulation consisting of 20% timolol maleate:10% Reservatrol:70% (1:1 ATEC:EA) was prepared by mixing. A unit dose of 50 μL was injected into the vitreous of two rabbit eyes, and Reservatrol was detected at 0.64 μg/mL (average) 7 days thereafter.

B16 melanoma tumors = assay: Mouse B16 melanoma tumor model, single intratumoral implantation of sustained release antioxidant formulation; format: in vivo, C57 mouse
Text: A mouse model was used to study the in vivo effect of sustained release antioxidant formulations on melanoma tumors. Mouse B16 melanoma Cell lines were obtained from NCI-Frederick, Md. C57 Mice were obtained from Simonsen Laboratories in Gilroy, Calif. Anesthesia was Ketamine/Xylazine/Acepromacine 1:1:0.03 mixture. […] cell suspension and 1×1 mm tumor pieces were preserved in 90% Fetal Bovine Serum and 10% DMSO in liquid nitrogen. Tumor was also maintained by in vivo serial subcutaneous passage.
Mice of either sex, weighing 16-18 grams, were anesthetized with the ketamine mixture. Subcutaneous implantation of the B16 suspension (100 ul of 2×10^6/ml) or solid tumor piece were performed in the back or nape of the mouse. Tumors were treated when tumor reached the average size of 6×6 mm in diameter and weighed approximately 0.6-0.8 grams in 7-10 days.
Treatment consisted of a single intratumoral implantation of semi-solid drug formulations. Each formulation consisted of 2 mg of active pharmaceutical ingredient (API): either Resveratrol, Astaxanthin, or Melatonin; in either tocopherol acetate (EA), benzyl benzoate (BB), or acetyltriethyl citrate (ATEC) excipients (all Sigma Chemical). The ratio of API and excipient was 80:20 by weight.

## C[C@@H]1C[C@H]2[C@@H]3CCC4=CC(=O)C=C[C@]4(C)[C@@]3(F)[C@@H](O)C[C@]2(C)[C@@]1(O)C(=O)CO [Dex, dexamethasone]
[1]; rabbit, in vivo
  concentration at 7 days: 2820 ng/mL

## Oc1ccc(/C=C/c2cc(O)cc(O)c2)cc1 [Reservatrol, 3,5,4′-trihydroxy-trans-stilbene]
[1]; other: intravitreal injection, 50 μL unit dose of 20% timolol maleate:10% Reservatrol:70% (1:1 ATEC:EA) injected into vitreous of two rabbit eyes, 7 days thereafter, average, read-out: concentration of Reservatrol detected in the vitreous
  concentration at 7 days: 640 ng/mL

## CC(C)(C)NC[C@H](O)COc1nsnc1N1CCOCC1 [Timalol, timolol]
[1]; rabbit, in vivo
  concentration at 7 days: 8930 ng/mL

## CC1=C(/C=C/C(C)=C/C=C/C(C)=C/C=C/C=C(C)/C=C/C=C(C)/C=C/C2=C(C)C(=O)[C@@H](O)CC2(C)C)C(C)(C)C[C@H](O)C1=O [astaxanthin]
B16 melanoma tumors; after the single treatment
  time to complete clinical resolution of the tumor: 5-7 weeks
  time to peeling of overlying skin surface and beginning ulceration: about one
  tumor growth after treatment: stopped growing immediately
B16 melanoma tumors; until termination of the experiment on day 90
  condition and body weight of the animals: remained active and continued to gain weight
